Among the data in patent US20220323455A1, “FUSED HETEROCYCLIC DERIVATIVES AS ANTIVIRAL AGENTS” (priority 2019, published 2022) are EC50 values, retold here.

For this assay, the system named is HBV. Description: HBV replication inhibition assay (BDNA assay) in HepG2.2.15 cells. The assay is classed as cell-based, Hepatitis B virus. Conditions: 6 days, encapsidated HBV DNA in supernatant. Put shortly:
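HepG2.2.15 cells were dosed with serially diluted compound (0.5% DMSO), with compound and medium renewed at day 3. Day-6 supernatants were DNase-treated and proteinase K-lysed, and encapsidated HBV DNA was quantified by branched-DNA assay. Percent inhibition was set against DMSO controls and EC50 obtained by nonlinear fit.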

pEC50: −log10 of the molar value.

With `C[C@@H]1Cc2nn3c(c2CN1C(=O)Nc1ccc(F)c(C#N)c1)C(F)(F)CCC(C(C)(C)O)C3` (single isomer, unassigned) [Example 103, (3R,8R*)—N-(3-Cyano-4-fluorophenyl)-11,11-difluoro-8-(2-hydroxypropan-2-yl)-3-methyl-3,4,8,9,10,11-hexahydro-1H-pyrido[4′,3′:3,4]pyrazolo[1,5-a]azepine-2(7H)-carboxamide], the pEC50 was 7.74.
In the case of `C[C@@H]1Cc2nn3c(c2CN1C(=O)Nc1ccnc(Br)c1F)C(F)(F)CCC(C(C)(C)O)C3` (single isomer, unassigned) [Example 104, (3R,8R*)—N-(2-Bromo-3-fluoropyridin-4-yl)-11,11-difluoro-8-(2-hydroxypropan-2-yl)-3-methyl-3,4,8,9,10,11-hexahydro-1H-pyrido[4′,3′:3,4]pyrazolo[1,5-a]azepine-2(7H)-carboxamide], the pEC50 was 7.44.
Turning to `COC(=O)NCC1CCC(F)(F)c2c3c(nn2C1)C[C@@H](C)N(C(=O)Nc1ccc(F)c(C#N)c1)C3` (single isomer, unassigned) [Example 105, methyl (((3R,8R*)-2-((3-cyano-4-fluorophenyl)carbamoyl)-11,11-difluoro-3-methyl-2,3,4,7,8,9,10,11-octahydro-1H-pyrido[4′,3′:3,4]pyrazolo[1,5-a]azepin-8-yl)methyl)carbamate], the pEC50 is 8.52.
As to `COC(=O)NCC1CCC(F)(F)c2c3c(nn2C1)C[C@@H](C)N(C(=O)Nc1ccnc(Br)c1F)C3` (single isomer, unassigned) [Example 106, Methyl (((3R,8R*)-2-((2-bromo-3-fluoropyridin-4-yl)carbamoyl)-11,11-difluoro-3-methyl-2,3,4,7,8,9,10,11-octahydro-1H-pyrido[4′,3′:3,4]pyrazolo[1,5-a]azepin-8-yl)methyl)carbamate], the pEC50 was 8.00.
Regarding `COC(=O)NCC1CCC(F)(F)c2c3c(nn2C1)C[C@@H](C)N(C(=O)Nc1ccnc(C(F)F)c1F)C3` (single isomer, unassigned) [Example 107, Methyl (((3R,8R*)-2-((2-(difluoromethyl)-3-fluoropyridin-4-yl)carbamoyl)-11,11-difluoro-3-methyl-2,3,4,7,8,9,10,11-octahydro-1H-pyrido[4′,3′:3,4]pyrazolo[1,5-a]azepin-8-yl)methyl)carbamate], the pEC50 is 8.10.
For `COC(=O)NCC1CCC(F)(F)c2c3c(nn2C1)C[C@@H](C)N(C(=O)Nc1ccc(F)c(C#N)c1)C3` (single isomer, unassigned) [Example 108, Methyl (((3R,8S*)-2-((3-cyano-4-fluorophenyl)carbamoyl)-11,11-difluoro-3-methyl-2,3,4,7,8,9,10,11-octahydro-1H-pyrido[4′,3′:3,4]pyrazolo[1,5-a]azepin-8-yl)methyl)carbamate], the negative-log EC50 (pEC50) is 7.92.
Take `COC(=O)NCC1CCC(F)(F)c2c3c(nn2C1)C[C@@H](C)N(C(=O)Nc1ccnc(Br)c1F)C3` (single isomer, unassigned) [Example 109, Methyl (((3R,8S*)-2-((2-bromo-3-fluoropyridin-4-yl)carbamoyl)-11,11-difluoro-3-methyl-2,3,4,7,8,9,10,11-octahydro-1H-pyrido[4′,3′:3,4]pyrazolo[1,5-a]azepin-8-yl)methyl)carbamate]: the pEC50 is 7.49.
The same measure for `COC(=O)NCC1CCC(F)(F)c2c3c(nn2C1)C[C@@H](C)N(C(=O)Nc1ccnc(C(F)F)c1F)C3` (single isomer, unassigned) [Example 110, Methyl (((3R,8S*)-2-((2-(difluoromethyl)-3-fluoropyridin-4-yl)carbamoyl)-11,11-difluoro-3-methyl-2,3,4,7,8,9,10,11-octahydro-1H-pyrido[4′,3′:3,4]pyrazolo[1,5-a]azepin-8-yl)methyl)carbamate]: 7.74; for `C[C@@H]1Cc2nn3c(c2CN1C(=O)Nc1ccc(F)c(C#N)c1)C(F)(F)CCC(F)(CO)C3` (single isomer, unassigned) [Example 111, (3R,8S*)—N-(3-Cyano-4-fluorophenyl)-8,11,11-trifluoro-8-(hydroxymethyl)-3-methyl-3,4,8,9,10,11-hexahydro-1H-pyrido[4′,3′:3,4]pyrazolo[1,5-a]azepine-2(7H)-carboxamide]: 8.15.
Regarding `C[C@@H]1Cc2nn3c(c2CN1C(=O)Nc1ccnc(Br)c1F)C(F)(F)CCC(F)(CO)C3` (single isomer, unassigned) [Example 112, (3R,8S*)—N-(2-Bromo-3-fluoropyridin-4-yl)-8,11,11-trifluoro-8-(hydroxymethyl)-3-methyl-3,4,8,9,10,11-hexahydro-1H-pyrido[4′,3′:3,4]pyrazolo[1,5-a]azepine-2(7H)-carboxamide], the pEC50 was 7.35.
The same measure for `C[C@@H]1Cc2nn3c(c2CN1C(=O)Nc1ccnc(C(F)F)c1F)C(F)(F)CCC(F)(CO)C3` (single isomer, unassigned) [Example 113, (3R,8S*)—N-(2-(Difluoromethyl)-3-fluoropyridin-4-yl)-8,11,11-trifluoro-8-(hydroxymethyl)-3-methyl-3,4,8,9,10,11-hexahydro-1H-pyrido[4′,3′:3,4]pyrazolo[1,5-a]azepine-2(7H)-carboxamide]: 6.81; for `C[C@@H]1Cc2nn3c(c2CN1C(=O)Nc1ccc(F)c(C#N)c1)C(F)(F)CCC(F)(CO)C3` (single isomer, unassigned) [Example 114, (3R,8R*)—N-(3-Cyano-4-fluorophenyl)-8,11,11-trifluoro-8-(hydroxylmethyl)-3-methyl-3,4,8,9,10,11-hexahydro-1H-pyrido[4′,3′:3,4]pyrazolo[1,5-a]azepine-2(7H)-carboxamide]: 9.00.
For `C[C@@H]1Cc2nn3c(c2CN1C(=O)Nc1ccnc(Br)c1F)C(F)(F)CCC(F)(CO)C3` (single isomer, unassigned) [Example 115, (3R,8R*)—N-(2-Bromo-3-fluoropyridin-4-yl)-8,11,11-trifluoro-8-(hydroxylmethyl)-3-methyl-3,4,8,9,10,11-hexahydro-1H-pyrido[4′,3′:3,4]pyrazolo[1,5-a]azepine-2(7H)-carboxamide], the pEC50 was 8.30.
`C[C@@H]1Cc2nn3c(c2CN1C(=O)Nc1ccnc(C(F)F)c1F)C(F)(F)CCC(F)(CO)C3` (single isomer, unassigned) [Example 116, (3R,8R*)—N-(2-(Difluoromethyl)-3-fluoropyridin-4-yl)-8,11,11-trifluoro-8-(hydroxymethyl)-3-methyl-3,4,8,9,10,11-hexahydro-1H-pyrido[4′,3′:3,4]pyrazolo[1,5-a]azepine-2(7H)-carboxamide]: the negative logarithm of the EC50 (pEC50) was 8.00.
In the case of `C[C@@H]1Cc2nn3c(c2CN1C(=O)Nc1ccnc(Br)c1F)C(F)(F)CC(O)CC3` (single isomer, unassigned) [Example 117, (3R,9S*)—N-(2-Bromo-3-fluoropyridin-4-yl)-11,11-difluoro-9-hydroxyl-3-methyl-3,4,8,9,10,11-hexahydro-1H-pyrido[4′,3′:3,4]pyrazolo[1,5-a]azepine-2(7H)-carboxamide], the negative-log EC50 (pEC50) is 7.74.
As for `C[C@@H]1Cc2nn3c(c2CN1C(=O)Nc1ccnc(Br)c1F)C(F)(F)CC(O)CC3` (single isomer, unassigned) [Example 118, (3R,9R*)—N-(2-Bromo-3-fluoropyridin-4-yl)-11,11-difluoro-9-hydroxyl-3-methyl-3,4,8,9,10,11-hexahydro-1H-pyrido[4′,3′:3,4]pyrazolo[1,5-a]azepine-2(7H)-carboxamide], the negative logarithm of the EC50 (pEC50) was 8.52.
For `C[C@@H]1Cc2nn3c(c2CN1C(=O)Nc1ccnc(C(F)F)c1F)C(F)(F)CC(O)CC3` (single isomer, unassigned) [Example 121, (3R,9S*)—N-(2-(Difluoromethyl)-3-fluoropyridin-4-yl)-11,11-difluoro-9-hydroxy-3-methyl-3,4,8,9,10,11-hexahydro-1H-pyrido[4′,3′:3,4]pyrazolo[1,5-a]azepine-2(7H)-carboxamide], the negative logarithm of the EC50 (pEC50) is 8.10.
With `C[C@@H]1Cc2nn3c(c2CN1C(=O)Nc1ccnc(C(F)F)c1F)C(F)(F)CC(O)CC3` (single isomer, unassigned) [Example 122, (3R,9R*)—N-(2-(Difluoromethyl)-3-fluoropyridin-4-yl)-11,11-difluoro-9-hydroxy-3-methyl-3,4,8,9,10,11-hexahydro-1H-pyrido[4′,3′:3,4]pyrazolo[1,5-a]azepine-2(7H)-carboxamide], the pEC50 is 8.70.
As for `C[C@@H]1Cc2nn3c(c2CN1C(=O)Nc1ccnc(Br)c1F)C(F)=CC(O)CC3` (single isomer, unassigned) [Example 124, (3R,9S*)—N-(2-Bromo-3-fluoropyridin-4-yl)-11-fluoro-9-hydroxy-3-methyl-3,4,8,9-tetrahydro-1H-pyrido[4′,3:3,4]pyrazolo[1,5-a]azepine-2(7H)-carboxamide], the pEC50 is 7.59.
Regarding `C[C@@H]1Cc2nn3c(c2CN1C(=O)Nc1ccc(F)c(C#N)c1)C(F)(F)CC(O)(CO)CC3` (single isomer, unassigned) [Example 125, (3R,9R*)—N-(3-Cyano-4-fluorophenyl)-11,11-difluoro-9-hydroxy-9-(hydroxymethyl)-3-methyl-3,4,8,9,10,11-hexahydro-1H-pyrido[4′,3′:3,4]pyrazolo[1,5-a]azepine-2(7H)-carboxamide], the pEC50 was 7.85.
Consider `C[C@@H]1Cc2nn3c(c2CN1C(=O)Nc1ccc(F)c(C#N)c1)C(F)(F)CC(O)(CO)CC3` (single isomer, unassigned) [Example 126, (3R,9S*)—N-(3-Cyano-4-fluorophenyl)-11,11-difluoro-9-hydroxy-9-(hydroxymethyl)-3-methyl-3,4,8,9,10,11-hexahydro-1H-pyrido[4′,3′:3,4]pyrazolo[1,5-a]azepine-2(7H)-carboxamide], for which the pEC50 is 8.30.
On to `C[C@@H]1Cc2nn3c(c2CN1C(=O)Nc1ccnc(Br)c1F)C(F)(F)CC(O)(CF)CC3` (single isomer, unassigned) [Example 129, (3R,9S*)—N-(2-Bromo-3-fluoropyridin-4-yl)-11,11-difluoro-9-(fluoromethyl)-9-hydroxy-3-methyl-3,4,8,9,10,11-hexahydro-1H-pyrido[4′,3′:3,4]pyrazolo[1,5-a]azepine-2(7H)-carboxamide], for which the pEC50 was 8.22.
